In patent publication US11903386B2, “Strigolactone analogs and their usage in plant control” (King Abdullah University of Science and Technology, priority 2016, dated 2024):
Entries after “also recorded” stand apart in the source; their conditions may differ. Blank lines part the entries; values can stand above or below the molecule they belong to.

Assays:
[1] = Chemical stability of MPs in aqueous solution, monitored by HPLC; format: physicochemical; details: aqueous solution pH 6.8, 21° C., monitored at 24 h intervals up to 3 weeks
Method: Aqueous solutions of MPs (50 μg ml-1; pH 6.8) were incubated at 21° C. in amber HPLC vials. For sample preparation, 50 μl of an acetone solution (1 mg ml-1) was diluted to the final concentration with methanol (425 μl), water (500 μl) and 25 μl of 1-Indanol (1.0 mg ml-1 solution in acetone) as internal standard. […] The column was operated at 35° C. with a flow rate of 0.25 ml per min. Compounds eluted from the column were detected with a Diode array detector. Relative quantity of remaining (non-degraded) product was determined by comparison to the internal standard.

S. hermonthica seeds = assay: Striga hermonthica seed germination bioassay; format: in vivo; details: comparison between compounds
Method: Parasitic weed seeds (S. hermonthica and P. ramosa) germination activity was recorded as described previously (Jamil et al., 2012). Six pre-conditioned seed discs were placed in a 90 mm petri-dish containing a filter paper ring wetted with 0.9 ml sterile MilliQ water. […] GR24 solutions with equal concentrations and sterile MilliQ water were included as a positive and negative control, respectively. After application, seeds were incubated at 30° C./25° C. in the dark for two days. Germination (seeds with radical emerging through seed coat) was scored under a binocular microscope, and germination rate (%) was calculated. Statistical analyses were carried out using statistical software package R (version 3.2.2). Dose-response curves and Half Maximum Effective Concentrations (EC50) were calculated to determine optimum amount of MPs. Synthetic strigolactone analog GR24 was used as reference to estimate efficacy of selected compounds. EC50 and estimated response were calculated using drc package (https://cran.r390 project.org/web/packages/drc/) with a Four Parameter Logistic Curve (Dose Response Curve) (Ritz and Streibig, 2005).

[2] = system: rice seedlings (Shiokari, d3, d10); assay: Growth and fresh biomass of hydroponically grown rice seedlings; format: in vivo; details: 2.5 μM, twice a week for three weeks
Method: Rice seeds (WT, d3, d10) were surface-sterilized by washing with 70% ethanol for 1 min and then with 2.5% sodium hypochlorite for 15 min. Seeds were then rinsed thoroughly with sterile MilliQ water and incubated in water for 2 days at 30° C. in the dark. Pre-germinated seeds were transferred to filter papers containing ½ strength MS medium in 90 mm petri dishes and incubated at 30° C. under fluorescent white light (130-180 μM m^−2 s^−1) for one week. Seven day-old seedlings were transferred to 50 ml falcon tubes (one seedling per tube) containing modified half-strength Hoagland nutrient solution and grown in greenhouse. Plants were treated with MPs at 2.5 μM-2.5×10-7 μM, using GR24 as positive control. The compounds were applied six times, twice a week. Number of tillers per plant, plant height and fresh biomass were measured at final harvest.

P. ramosa seeds = assay: P. ramosa seed germination bioassay; format: in vivo; details: 1.0 μM
Method: Parasitic weed seeds (S. hermonthica and P. ramosa) germination activity was recorded as described previously (Jamil et al., 2012). Six pre-conditioned seed discs were placed in a 90 mm petri-dish containing a filter paper ring wetted with 0.9 ml sterile MilliQ water. […] GR24 solutions with equal concentrations and sterile MilliQ water were included as a positive and negative control, respectively. After application, seeds were incubated at 30° C./25° C. in the dark for two days. Germination (seeds with radical emerging through seed coat) was scored under a binocular microscope, and germination rate (%) was calculated.

Arabidopsis seedlings [3] = assay: Arabidopsis lateral root density and primary root length; format: in vivo; details: 1.0 μM, 8 days old seedlings
Method: Sterilized Arabidopsis seeds were sown on half strength MS (with 0.5% sucrose+1% agar, 0.5 g L^−1 MES, pH 5.7) plates supplemented with GR24 or MPs (at 1.0 μM). Plates were stored at 4° C. in darkness for 3 days and then vertically grown at 22° C. in Percival incubator under long day condition (16 h at 22° C./8 h at 16° C. day/night, 60% relative humidity, 4000-5000 LUX white light) for 8 days. For determining the effect on lateral root density and primary root length, at least 30 seedlings were measured using publically available ImageJ software (http://rsbweb.nih.gov/ij/) after scanning roots.

S. hermonthica = details: in vivo; cited from earlier work
Arabidopsis seedlings [4] = assay: Arabidopsis hypocotyl elongation assay; format: in vivo; details: 1.0 μM
Method: Sterilized Arabidopsis seeds were sown on half strength MS (with 0.5% sucrose+1% agar, 0.5 g L-1 MES, pH 5.7) plates supplemented with MPs or GR24 (at 1.0 μM). Plates were stored at 4° C. in darkness for 3 days. To initiate germination, plates were exposed to continuous white light for 24 h then transferred to continuous monochromatic red light (160 Lux, 22° C.) conditions for another 4 days. For hypocotyl length measurement, at least 30 seedlings were measured using the publically available ImageJ software (http://rsbweb.nih.gov/ij/) after taking digital photographs. Monochromatic red light source was applied as described previously (Wu and Yang, 2010). Light flow rates were measured using a Li250 quantum photometer (Li-Cor, Lincoln, NE, USA).

Compound: COC(=O)/C(=C/OC1C=C(C)C(=O)O1)c1cccc(Cl)c1 (centres unmarked) [MP8]
Stability in comparison to GR24 [1]: very similar to that of GR24
P. ramosa seed germination activity (P. ramosa seeds): much higher activity
Reduction of number of lateral roots / lateral root density (Arabidopsis seedlings [3]): slightly more active than GR24

Compound: CC1=CC(O/C=C(C)\C=C\C2=C(C)CCCC2(C)C)OC1=O (centres unmarked) [Carlactone]
Activity in S. hermonthica seed germination (S. hermonthica): considerable activity

Compound: CC1=CC(O/C=C2/C(=O)OCc3ccccc32)OC1=O (centres unmarked) [MP5]
Stability in comparison to GR24 [1]: more stable than GR24; also recorded: the most stable compound

Continued, in another order:

Stability in comparison to GR24 [1]: very similar to that of GR24
Compound: COC(=O)/C(=C/OC1C=C(C)C(=O)O1)c1ccccc1Cl (centres unmarked) [MP9]
Relative activity in inducing S. hermonthica seed germination (S. hermonthica seeds): followed by MP9
Growth, senescence symptoms and biomass of rice seedlings [2]: stunted the growth and caused senescence symptoms

Stability in comparison to GR24 [1]: very similar to that of GR24
Compound: COC(=O)/C(=C/OC1C=C(C)C(=O)O1)c1ccc(OC)cc1 (centres unmarked) [MP14]

Stability in comparison to GR24 [1]: not detectable even after only 24 h
Compound: CC1=CC(O/C=C(/C=O)c2ccc([N+](=O)[O-])cc2)OC1=O (racemic) [MP12, (E)-3-(4-methyl-5-oxo-2,5-dihydrofuran-2-yloxy)-2-(4-nitrophenyl)acrylaldehyde]
Inhibition of hypocotyl growth (Arabidopsis seedlings [4]): Apart from MP12 and MP15, all MPs showed significant inhibition
